Columns and labels:
Format in all cases: cell-based
[1] = target: human α1H T-type channels (Homo sapiens, UniProt O95180); test: T-type calcium channel block, whole cell patch clamp, α1H; settings: HEK cells stably expressing human α1H; mainly non-inactivated protocol; values above 10,000 nM represented as 10000
Summary of the method: (§1)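 Blockade of T-type current was measured in human α1G- or α1H-expressing HEK 293 cells using whole-cell recording with ~5 MΩ pipettes. Test compounds, dissolved in external solution containing 0.1-0.01% DMSO, were applied close to the cell, and block was examined under both non-inactivating and inactivating voltage protocols.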

[2] = target: N-type calcium channel subunits (α1B, α2δ, and β3a) (Homo sapiens, UniProt Q00975); test: Block of Cav2.2 channel, whole cell voltage clamp, manual and PatchXpress; settings: Table 5; table follows Assay Example 3 (whole cell voltage clamp / PatchXpress); assay not given
Summary of the method: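 Percent block taken as current amplitude ratio with versus without compound, applied in rising doses; IC50 fitted where one cell received multiple doses. Protocol: 50 ms pulses to +20 mV at 0.067 Hz from […] or −90 mV holding; P/n leak subtraction, no junction-potential correction; manual and PatchXpress recordings.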

[3] = target: human α1G T-type channels (Homo sapiens, UniProt O43497); test: T-type calcium channel block, whole cell patch clamp, α1G; settings: HEK cells stably expressing human α1G; mainly non-inactivated protocol; values above 10,000 nM represented as 10000
Sequence of human α1G T-type channels (O43497 whole entry): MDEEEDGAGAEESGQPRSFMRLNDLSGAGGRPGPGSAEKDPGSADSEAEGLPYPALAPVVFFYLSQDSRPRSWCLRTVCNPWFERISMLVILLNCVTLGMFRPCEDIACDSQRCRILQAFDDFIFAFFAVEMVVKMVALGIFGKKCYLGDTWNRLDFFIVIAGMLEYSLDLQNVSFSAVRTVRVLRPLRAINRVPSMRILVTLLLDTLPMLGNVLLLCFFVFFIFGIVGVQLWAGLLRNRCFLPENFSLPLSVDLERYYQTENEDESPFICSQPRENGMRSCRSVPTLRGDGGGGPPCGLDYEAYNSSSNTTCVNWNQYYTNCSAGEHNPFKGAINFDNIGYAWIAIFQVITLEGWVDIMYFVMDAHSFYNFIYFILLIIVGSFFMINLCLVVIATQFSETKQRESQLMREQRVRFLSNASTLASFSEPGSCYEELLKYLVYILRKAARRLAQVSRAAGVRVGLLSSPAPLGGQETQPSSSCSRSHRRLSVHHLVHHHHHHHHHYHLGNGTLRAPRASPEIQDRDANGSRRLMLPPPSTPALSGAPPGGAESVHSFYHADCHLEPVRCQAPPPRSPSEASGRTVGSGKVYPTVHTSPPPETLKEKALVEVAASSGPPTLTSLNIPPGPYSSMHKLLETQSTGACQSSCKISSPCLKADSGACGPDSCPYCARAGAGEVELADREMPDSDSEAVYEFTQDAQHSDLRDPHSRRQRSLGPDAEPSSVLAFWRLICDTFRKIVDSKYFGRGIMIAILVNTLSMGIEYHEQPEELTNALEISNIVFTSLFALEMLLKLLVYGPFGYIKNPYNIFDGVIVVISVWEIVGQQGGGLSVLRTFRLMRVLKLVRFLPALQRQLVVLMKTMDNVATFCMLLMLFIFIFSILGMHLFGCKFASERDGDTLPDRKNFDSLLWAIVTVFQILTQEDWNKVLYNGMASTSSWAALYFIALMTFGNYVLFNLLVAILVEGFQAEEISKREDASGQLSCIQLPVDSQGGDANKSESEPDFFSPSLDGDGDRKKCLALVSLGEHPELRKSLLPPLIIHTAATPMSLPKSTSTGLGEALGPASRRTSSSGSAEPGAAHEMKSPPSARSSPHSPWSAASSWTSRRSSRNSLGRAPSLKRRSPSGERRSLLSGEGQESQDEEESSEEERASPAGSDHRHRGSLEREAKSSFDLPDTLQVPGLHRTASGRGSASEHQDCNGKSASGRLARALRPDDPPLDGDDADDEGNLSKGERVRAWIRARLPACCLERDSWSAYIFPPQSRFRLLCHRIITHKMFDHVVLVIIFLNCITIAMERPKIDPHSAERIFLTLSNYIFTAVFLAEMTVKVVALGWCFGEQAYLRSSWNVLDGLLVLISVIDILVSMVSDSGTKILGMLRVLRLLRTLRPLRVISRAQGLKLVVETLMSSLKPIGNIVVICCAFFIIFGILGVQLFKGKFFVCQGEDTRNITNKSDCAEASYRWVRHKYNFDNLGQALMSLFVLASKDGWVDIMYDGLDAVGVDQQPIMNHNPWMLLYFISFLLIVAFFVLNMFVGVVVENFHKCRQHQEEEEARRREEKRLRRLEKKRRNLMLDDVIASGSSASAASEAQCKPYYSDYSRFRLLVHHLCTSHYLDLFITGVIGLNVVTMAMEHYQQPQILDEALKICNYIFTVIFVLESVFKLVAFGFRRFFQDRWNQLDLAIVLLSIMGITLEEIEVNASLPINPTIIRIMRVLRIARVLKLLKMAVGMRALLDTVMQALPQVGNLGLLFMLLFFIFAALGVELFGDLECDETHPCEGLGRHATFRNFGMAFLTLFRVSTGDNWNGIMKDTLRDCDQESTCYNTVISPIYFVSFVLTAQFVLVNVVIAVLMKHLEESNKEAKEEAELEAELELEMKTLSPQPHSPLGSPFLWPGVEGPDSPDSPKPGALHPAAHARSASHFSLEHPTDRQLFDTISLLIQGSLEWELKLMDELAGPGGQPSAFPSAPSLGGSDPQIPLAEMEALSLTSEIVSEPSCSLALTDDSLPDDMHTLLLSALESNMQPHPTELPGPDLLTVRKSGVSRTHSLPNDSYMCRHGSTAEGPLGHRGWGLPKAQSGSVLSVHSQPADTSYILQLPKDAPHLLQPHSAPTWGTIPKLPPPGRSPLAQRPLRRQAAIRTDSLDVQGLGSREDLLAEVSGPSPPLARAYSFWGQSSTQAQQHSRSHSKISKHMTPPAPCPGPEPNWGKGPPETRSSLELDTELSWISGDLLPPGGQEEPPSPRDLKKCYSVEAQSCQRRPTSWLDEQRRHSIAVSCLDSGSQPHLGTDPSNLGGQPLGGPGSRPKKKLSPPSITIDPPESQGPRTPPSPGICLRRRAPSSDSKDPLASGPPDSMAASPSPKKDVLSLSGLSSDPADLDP
Summary of the method: as §1

Sequence of human α1H T-type channels (O95180 whole entry): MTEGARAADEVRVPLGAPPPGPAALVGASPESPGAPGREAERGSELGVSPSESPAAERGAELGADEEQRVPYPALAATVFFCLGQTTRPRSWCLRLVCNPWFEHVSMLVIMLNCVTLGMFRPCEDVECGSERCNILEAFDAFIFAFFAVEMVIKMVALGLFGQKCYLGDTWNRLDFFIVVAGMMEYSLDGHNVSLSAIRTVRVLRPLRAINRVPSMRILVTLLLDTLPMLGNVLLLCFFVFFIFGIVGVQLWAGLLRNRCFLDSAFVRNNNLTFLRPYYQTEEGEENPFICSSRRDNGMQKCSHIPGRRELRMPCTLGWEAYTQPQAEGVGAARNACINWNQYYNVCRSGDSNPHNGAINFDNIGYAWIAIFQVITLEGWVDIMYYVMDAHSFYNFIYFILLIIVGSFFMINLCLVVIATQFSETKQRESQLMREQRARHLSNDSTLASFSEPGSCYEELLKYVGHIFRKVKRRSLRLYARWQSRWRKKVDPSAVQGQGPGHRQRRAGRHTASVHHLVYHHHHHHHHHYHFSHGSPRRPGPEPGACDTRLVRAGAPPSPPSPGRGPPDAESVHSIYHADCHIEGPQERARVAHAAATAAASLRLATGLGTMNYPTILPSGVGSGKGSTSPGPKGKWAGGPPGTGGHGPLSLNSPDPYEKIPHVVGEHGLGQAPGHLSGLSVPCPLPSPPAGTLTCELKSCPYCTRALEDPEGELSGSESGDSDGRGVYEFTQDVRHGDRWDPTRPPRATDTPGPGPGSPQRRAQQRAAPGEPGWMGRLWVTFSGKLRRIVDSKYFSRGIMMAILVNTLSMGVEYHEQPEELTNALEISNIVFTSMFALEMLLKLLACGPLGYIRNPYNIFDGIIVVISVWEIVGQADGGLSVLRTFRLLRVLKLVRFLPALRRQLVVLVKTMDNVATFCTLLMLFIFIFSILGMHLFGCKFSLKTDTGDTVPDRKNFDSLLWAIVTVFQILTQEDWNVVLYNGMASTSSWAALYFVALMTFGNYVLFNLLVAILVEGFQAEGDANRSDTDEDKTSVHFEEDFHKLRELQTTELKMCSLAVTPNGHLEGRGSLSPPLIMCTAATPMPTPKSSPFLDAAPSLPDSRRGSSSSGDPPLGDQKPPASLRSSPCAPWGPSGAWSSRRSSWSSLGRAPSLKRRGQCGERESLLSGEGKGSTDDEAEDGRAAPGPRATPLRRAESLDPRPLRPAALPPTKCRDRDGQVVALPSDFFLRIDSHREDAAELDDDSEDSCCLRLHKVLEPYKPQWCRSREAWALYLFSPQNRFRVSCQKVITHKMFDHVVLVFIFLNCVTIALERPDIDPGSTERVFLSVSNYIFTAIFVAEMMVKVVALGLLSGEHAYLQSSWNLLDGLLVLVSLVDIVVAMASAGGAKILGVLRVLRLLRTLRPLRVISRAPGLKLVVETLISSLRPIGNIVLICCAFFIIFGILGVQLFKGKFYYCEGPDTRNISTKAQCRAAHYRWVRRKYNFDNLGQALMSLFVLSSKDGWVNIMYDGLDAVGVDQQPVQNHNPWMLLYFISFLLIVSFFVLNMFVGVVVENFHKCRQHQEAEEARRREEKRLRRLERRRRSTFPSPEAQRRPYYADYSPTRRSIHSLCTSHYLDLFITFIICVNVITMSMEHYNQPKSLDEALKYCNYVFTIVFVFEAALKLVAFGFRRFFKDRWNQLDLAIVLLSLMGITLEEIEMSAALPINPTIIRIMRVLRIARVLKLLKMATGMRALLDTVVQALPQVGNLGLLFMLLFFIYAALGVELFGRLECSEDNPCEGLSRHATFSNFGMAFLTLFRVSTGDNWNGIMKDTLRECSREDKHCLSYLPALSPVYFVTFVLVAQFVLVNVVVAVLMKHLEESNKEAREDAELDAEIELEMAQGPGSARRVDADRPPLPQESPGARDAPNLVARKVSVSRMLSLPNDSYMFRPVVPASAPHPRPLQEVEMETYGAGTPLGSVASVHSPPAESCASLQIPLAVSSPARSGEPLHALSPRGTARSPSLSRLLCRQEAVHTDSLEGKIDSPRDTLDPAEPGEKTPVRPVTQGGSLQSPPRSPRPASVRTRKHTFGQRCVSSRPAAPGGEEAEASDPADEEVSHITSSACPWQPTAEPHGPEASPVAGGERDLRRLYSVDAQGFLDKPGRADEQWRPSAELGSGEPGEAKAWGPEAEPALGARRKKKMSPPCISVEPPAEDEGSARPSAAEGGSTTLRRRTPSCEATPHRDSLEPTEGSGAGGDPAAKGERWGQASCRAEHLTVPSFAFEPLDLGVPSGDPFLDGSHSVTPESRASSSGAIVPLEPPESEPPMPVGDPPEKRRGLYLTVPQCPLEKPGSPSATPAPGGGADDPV

Row | SMILES | IC50 [1] [nM] | IC50 [2] [nM] | IC50 [3] [µM]
1 | O=C(N[C@H]1CC[C@@H](S(=O)(=O)c2cccc(C(F)(F)F)c2)CC1)c1ccc(Cl)c(OC(F)(F)F)c1 [Compound 133, 4-chloro-3-(trifluoromethoxy)-N-((1S,4S)-4-(3-(trifluoromethyl)phenylsulfonyl)cyclohexyl)benzamide] | 400 | 210 | 0.35
2 | COc1cc(Cl)ccc1C(=O)N[C@H]1CC[C@@H](S(=O)(=O)c2cccc(C(F)(F)F)c2)CC1 [Compound 134, 4-chloro-2-methoxy-N-((1S,4S)-4-(3-(trifluoromethyl)phenylsulfonyl)cyclohexyl)benzamide] | 1820 | 500 | 2.63
3 | CC1(CNC(=O)c2ccc(F)c(C(F)(F)F)c2)CCC(S(=O)(=O)c2cccc(C(F)(F)F)c2)CC1 (stereo not drawn) [Compound 135, 4-fluoro-N-((1-methyl-4-(3-(trifluoromethyl)phenylsulfonyl)cyclohexyl)methyl)-3-(trifluoromethyl)benzamide] | 760 | 100 | 0.78
4 | COc1cc(F)cc(C(=O)N[C@H]2CC[C@@H](CS(=O)(=O)c3cccc(C(F)(F)F)c3)CC2)c1 [Compound 136, 3-fluoro-5-methoxy-N-((1S,4S)-4-((3-(trifluoromethyl)phenylsulfonyl)methyl)cyclohexyl)benzamide] | 550 | 440 | 0.54
5 | O=C(N[C@H]1CC[C@@H](CS(=O)(=O)c2cccc(C(F)(F)F)c2)CC1)c1ccc(Cl)c(OC(F)(F)F)c1 [Compound 139, 4-chloro-3-(trifluoromethoxy)-N-((1S,4S)-4-((3-(trifluoromethyl)phenylsulfonyl)methyl)cyclohexyl)benzamide] | 1020 | 390 | 1.88
6 | O=C(N[C@H]1CC[C@@H](CS(=O)(=O)c2cccc(C(F)(F)F)c2)CC1)c1ccc(Cl)c(F)c1 [Compound 141, 4-chloro-3-fluoro-N-((1S,4S)-4-((3-(trifluoromethyl)phenylsulfonyl)methyl)cyclohexyl)benzamide] | 3610 | 600 | 4.25
7 | O=C(N[C@H]1CC[C@@H](CS(=O)(=O)c2cccc(C(F)(F)F)c2)CC1)c1ccc(F)c(Cl)c1 [Compound 142, 3-chloro-4-fluoro-N-((1S,4S)-4-((3-(trifluoromethyl)phenylsulfonyl)methyl)cyclohexyl)benzamide] | 5880 | 380 | 8.23
8 | O=C(N[C@H]1CC[C@@H](CS(=O)(=O)c2cccc(C(F)(F)F)c2)CC1)c1ccc(C(F)(F)F)cn1 [Compound 143, 5-(trifluoromethyl)-N-((1S,4S)-4-((3-(trifluoromethyl)phenylsulfonyl)methyl)cyclohexyl)picolinamide] | 6750 | 950 | > 10
9 | CN(C(=O)CN[C@H]1CC[C@@H](CS(=O)(=O)c2cccc(C(F)(F)F)c2)CC1)C(C)(C)C [Compound 145, N-tert-butyl-N-methyl-2-((1S,4S)-4-((3-(trifluoromethyl)phenylsulfonyl)methyl)cyclohexylamino)acetamide] | 1340 | 1190 | 5.83
10 | COc1cc(C(=O)NCC2(C)CCC(F)(S(=O)(=O)c3cccc(C(F)(F)F)c3)CC2)cc(Cl)n1 (stereo not drawn) [Compound 158, 2-chloro-N-((4-fluoro-1-methyl-4-(3-(trifluoromethyl)phenylsulfonyl)cyclohexyl)methyl)-6-methoxyisonicotinamide] | 7200 | 480 | > 10
11 | CC1(CNCC(=O)NC(C)(C)C)CCC(F)(S(=O)(=O)c2cccc(C(F)(F)F)c2)CC1 (stereo not drawn) [Compound 159, N-tert-butyl-2-((4-fluoro-1-methyl-4-(3-(trifluoromethyl)phenylsulfonyl)cyclohexyl)methylamino)acetamide] | > 10000 | 460 | > 10
12 | O=C(CNC1CCCCC1)N[C@H]1CC[C@H](CS(=O)(=O)c2cccc(C(F)(F)F)c2)CC1 [Compound 162, 2-(cyclohexylamino)-N-((1R,4R)-4-((3-(trifluoromethyl)phenylsulfonyl)methyl)cyclohexyl)acetamide] | > 10000 | 540 | > 10
13 | O=C(CNC1CCC(F)(F)CC1)N[C@H]1CC[C@H](CS(=O)(=O)c2cccc(C(F)(F)F)c2)CC1 [Compound 165, 2-(4,4-difluorocyclohexylamino)-N-((1R,4R)-4-((3-(trifluoromethyl)phenylsulfonyl)methyl)cyclohexyl)acetamide] | 1390 | 540 | 4.37
14 | O=C(N[C@H]1CC[C@H](S(=O)(=O)c2cccc(C(F)(F)F)c2)CC1)c1cncc(C(F)(F)F)c1 [Compound 190, 5-(trifluoromethyl)-N-((1R,4R)-4-(3-(trifluoromethyl)phenylsulfonyl)cyclohexyl)nicotinamide] | 2530 | 600 | 5.56
15 | O=C(N[C@H]1CC[C@@H](S(=O)(=O)c2cccc(C(F)(F)F)c2)CC1)c1ccnn1CC(F)(F)F [Compound 193, l-(2,2,2-trifluoroethyl)-N-((1S,4S)-4-(3-(trifluoromethyl)phenylsulfonyl)cyclohexyl)-1H-pyrazole-5-carboxamide] | 1590 | 540 | 6.97
16 | O=C(N[C@H]1CC[C@@H](S(=O)(=O)c2cccc(C(F)(F)F)c2)CC1)c1ccc(OCC(F)(F)F)nc1 [Compound 197, 6-(2,2,2-trifluoroethoxy)-N-((1S,4S)-4-(3-(trifluoromethyl)phenylsulfonyl)cyclohexyl)nicotinamide] | 5660 | 470 | > 10
17 | Cc1cc(C(=O)N[C@H]2CC[C@@H](S(=O)(=O)c3cccc(C(F)(F)F)c3)CC2)c(C(F)(F)F)o1 [Compound 198, 5-methyl-2-(trifluoromethyl)-N-((1S,4S)-4-(3-(trifluoromethyl)phenylsulfonyl)cyclohexyl)furan-3-carboxamide] | > 10000 | 270 | > 10
18 | O=C(N[C@H]1CC[C@@H](S(=O)(=O)c2cccc(C(F)(F)F)c2)CC1)c1cncc(C(F)(F)F)c1 [Compound 203, 5-(trifluoromethyl)-N-((1S,4S)-4-(3-(trifluoromethyl)phenylsulfonyl)cyclohexyl)nicotinamide] | 1890 | 590 | 2.57
19 | CC(C)(C)S(=O)(=O)c1ccsc1C(=O)N[C@H]1CC[C@@H](S(=O)(=O)c2cccc(C(F)(F)F)c2)CC1 [Compound 204, 3-(tert-butylsulfonyl)-N-((1S,4S)-4-(3-(trifluoromethyl)phenylsulfonyl)cyclohexyl)thiophene-2-carboxamide] | 6460 | 210 | 3.55
20 | Cn1nc(C(F)(F)F)cc1C(=O)NCC1(C)CCC(S(=O)(=O)c2cccc(C(F)(F)F)c2)CC1 (stereo not drawn) [Compound 206, 1-methyl-N-((1-methyl-4-(3-(trifluoromethyl)phenylsulfonyl)cyclohexyl)methyl)-3-(trifluoromethyl)-1H-pyrazole-5-carboxamide] | 2550 | 420 | 3.52
21 | CC1(CNC(=O)c2ccc(C(F)(F)F)cc2S(C)(=O)=O)CCC(S(=O)(=O)c2cccc(C(F)(F)F)c2)CC1 (stereo not drawn) [Compound 207] | 1130 | 260 | 1.34
22 | CC1(CNC(=O)c2ccc(C(F)(F)F)cn2)CCC(S(=O)(=O)c2cccc(C(F)(F)F)c2)CC1 (stereo not drawn) [Compound 208, N-((1-methyl-4-(3-(trifluoromethyl)phenylsulfonyl)cyclohexyl)methyl)-5-(trifluoromethyl)picolinamide] | 1110 | 590 | 1.14
23 | COc1cc(C(=O)NCC2(C)CCC(S(=O)(=O)c3cccc(C(F)(F)F)c3)CC2)cc(Cl)n1 (stereo not drawn) [Compound 210, 2-chloro-6-methoxy-N-((1-methyl-4-(3-(trifluoromethyl)phenylsulfonyl)cyclohexyl)methyl)isonicotinamide] | 4140 | 380 | 4.95
24 | O=C(N[C@H]1CC[C@@](F)(S(=O)(=O)c2cccc(C(F)(F)F)c2)CC1)c1ccc(OCC(F)(F)F)nc1 [Compound 249, N-((1S,4S)-4-fluoro-4-(3-(trifluoromethyl)phenylsulfonyl)cyclohexyl)-6-(2,2,2-trifluoroethoxy)nicotinamide] | 360 | 260 | 2.65
25 | O=C(N[C@H]1CC[C@](F)(S(=O)(=O)c2cccc(OC(F)(F)F)c2)CC1)c1ccc(F)c(Cl)c1 [Compound 250, 3-chloro-4-fluoro-N-((1R,4R)-4-fluoro-4-(3-(trifluoromethoxy)phenylsulfonyl)cyclohexyl)benzamide] | 990 | 800 | 4.28
26 | O=C(N[C@H]1CC[C@@](F)(S(=O)(=O)c2cccc(OC(F)(F)F)c2)CC1)c1cc(F)cc(Cl)c1 [Compound 251] | 570 | 150 | 3.59
27 | O=C(N[C@H]1CC[C@@](F)(S(=O)(=O)c2cccc(OC(F)(F)F)c2)CC1)c1cncc(C(F)(F)F)c1 [Compound 252, N-((1S,4S)-4-fluoro-4-(3-(trifluoromethoxy)phenylsulfonyl)cyclohexyl)-5-(trifluoromethyl)nicotinamide] | 670 | 350 | 0.45
28 | O=C(N[C@H]1CC[C@@](F)(S(=O)(=O)c2cccc(OC(F)(F)F)c2)CC1)c1ccnn1CC(F)(F)F [Compound 253] | 460 | 320 | 1.19
